According to patent publication US20220062233A1 (The Board of Trustees of the Leland Stanford Junior …, priority 2018, published 2022):
Like-named read-outs stand apart in the source and are kept apart here.

Assays:
mutant HTT [1] = assay: Mutant HTT assay in lymphoblastoid cells (LBC), Western blot; format: cell-based, human; details: read-out: LBC IC20 (nM) mHTT, 3 days compound treatment
Method: (§1) B. Mutant and Wild-Type HTT Assay in Lymphoblastoid Cells (LBC)
(§2) a. Cell Culturing and Compound Treatment
(§3) Lymphoblastoid cells derived from a Huntington's disease patient with 250 CAG repeats in the mutant HTT allele (GM14044 from Coriell Institute) were cultured in RPMI 1640 (Corning Cellgro, 10-040-CV) containing fetal bovine serum (Atlanta Biologicals, S11150). 4×10^5 cells were seeded on a 24-well plate and incubated with testing compound for 3 days. The cell suspension was then transferred to a 1.5 ml Eppendorf tube. Cells were collected by centrifugation and washed once with PBS. After all liquid was removed, the cell pellet was placed at −80° C. for at least 10 minutes. Lysis buffer [30 mM Tris-HCl (pH 8.0), 5 mM NaCl, 0.1% Triton X-100] with the proteinase inhibitor cocktail (P8340 from Sigma-Aldrich) was then added to the cells. Following centrifugation (14 k rpm for 15 min at 4° C.), the supernatant was collected. The protein concentrations were determined by BCA assay (Pierce, ThermoFisher).
(§4) Equal amounts of protein were loaded onto 4-12% gel (Invitrogen, WG1403A). After electrophoresis, the gels were transferred to nitrocellulose membranes by wet transfer at 72V for 3 hrs. […] The protein levels of mutant HTT, wild-type HTT, TBP, and tubulin were determined by immunoblotting with anti-polyQ specific antibody (clone MW1), anti-Huntingtin antibody (Abcam, ab45169), anti-TBP antibody (Sigma, T1827) and anti-alpha tubulin antibody (Sigma, T9026). Blots were imaged on a Li-Cor Odyssey infrared imager. The band intensities were determined by Li-Cor Odyssey software.

M2-8 cells = assay: M2-8 Cell viability Assay; format: cell-based; details: at the concentration of 1000 nM
mutant HTT [2] = assay: Mutant HTT assay in induced pluripotent stem cells (iPSC); format: cell-based, human; details: HD patient iPSCs, one day incubation; numeric bounds; read-out: iPSC IC20 (nM) mHTT
Method: C. Mutant HTT Assay in Induced Pluripotent Stem Cells (iPSC) a. Cell Culturing and Compound Treatment
Huntington's disease patient iPSCs (ND50036 from NINDS) were detached into single cells by Accutase (25058CI from Corning), counted and plated on a 24-well plate coated with Matrigel (354277 from Corning) at density of 7,000 cells/well. After 48 hrs, compounds were added to the cell culture medium mTeSR1 (85850 from StemCell Technologies) and the cells were incubated for one day. The medium was then removed, and the cells were washed with PBS. After all liquid was removed, the plate was placed at −80° C. overnight. Lysis buffer [30 mM Tris-HCl (pH 8.0), 5 mM NaCl, 0.1% Triton X-100] with the complete proteinase inhibitor cocktail (5892791001 from Sigma-Aldrich) was then added to the cells. Cell samples were lysed on an orbital plate shaker at 4° C. at 700 rpm for 30 min. The supernatants from spinning (14 k rpm for 10 min) were collected. The protein concentrations were determined by BCA assay (23225 from Pierce, ThermoFisher). […]
b. Detection of Mutant HTT Protein
Equal amounts of protein lysate collected from each sample were added to a 96-well plate that had been coated with a human HTT specific monoclonal antibody. After washing away any unbound substances, a biotinylated anti-human mutant HTT specific detection antibody was added. Streptavidin-horseradish peroxidase was subsequently added, followed by TMB Substrate Solution, which yielded a blue product that turns yellow when the Stop Solution was added. The intensity of the color measured was in proportion to the amount of mutant HTT bound in the initial step. The mutant HTT values are then interpolated from a standard curve.

[3] = target: T1, interaction between Supt4h and NGN (subunit of Supt5h) (Homo sapiens, UniProt O00267+P63272); assay: Split Gaussia luciferase complementation assay (M2-8 Luciferase); format: cell-based; details: M2-8 cells
T1 construct: expressed in transfected cells
Method: A. Split Gaussia Luciferase Complementation Assay […]
i: pNBR-X1-Supt4-Gluc1 and pNEBR-X1-NGN-Gluc2
The HA-Supt4h and Flag-NGN fragments are amplified by PCR using the plasmid pHA-Supt4h-YC and pFlag-NGN-YN and sub-cloned individually into pcDNA3.1-Gluc1 and pcDNA3.1-Gluc2 (described in “A highly sensitive protein-protein interaction assay based on Gaussia luciferase” published at Nat Methods. 2006 December; 3(12):977-9. Epub 2006 Nov. 12). Then HA-Supt4h-Gluc1 and Flag-NGN-Gluc2 are amplified by PCR and inserted to pNEBR-X1-Hygro (New England BioLabs), which contain RheoSwitch responsive element under the control of RheoSwitch ligand. […]
ii: pNEBR-X1-Supt4h-G1-NGN-G2
PCR products containing the sequence from 5XRE to polyA in pNEBR-X1-NGN-G2 are inserted to pNEBR-X1-Supt4h-G1 at Pcil site to generate Supt4h-G1 and NGN-G2 bidirectional under their own RheoSwitch responsive element and polyA in the same plasmid. […]
b. Stable Cloned Cell Line i: 293-R1 is a cloned cell line which is engineered to constitutively express RSL1 receptor/activator by transfecting HEK 293 cells with pNEBR-R1 plasmid (New England BioLabs) and selected with blasticidin. […]
ii: M2-8 is a cloned 293-R1 cell which can inducibly express pNEBR-X1-Supt4h-G1-NGN-G2 by addition of RSL1. Two point mutations ([…] and M110I) are introduced to the GL1 and GL2 for better stability according to “A high-throughput cell-based Gaussia luciferase reporter assay for identifying modulators of fibulin-3 secretion” published in J Biomol Screen. 2013 July; 18(6):647-58. The cell line is selected by hygromycin. […]
c. Cell Culture and Transfection Condition
All the HEK-293 cells and derivative clones are maintained in DMEM containing 10% FBS plus corresponding antibiotics (250 μg/ml hygromycin B, 10 μg/ml blasticidin or both) at 37° C., 5% CO2. All the transfections are done by using Lipofectamine 2000 (Invitrogen) according to the manufacturer's instructions. […]
d. Bioluminescence Assay from Cell Lysates
Plasmids harboring the Gluc1 and Gluc2 are co-transfected in a 1:1 ratio into 293-R1 cells plated on tissue culture treated 24-well plates using Lipofectamine 2000 according to the manufacturer's instructions. For stable M2-8 cells, the cells are directly plated into 96-well or 384-well white plates. Twenty-four hours later, RheoSwitch ligand with or without test compound is added to the cells for induction/drug treatment. After 24 hr, the cells are washed with PBS and the plate was stored at −20° C. overnight. Lysis buffer [30 mM Tris-HCl (pH 8.0) 5 mM NaCl, 0.1% Triton X-100] with 10 μg/ml native coelenterazine (Nanolight Technology) is then added to the cells at room temperature for one hour in the dark. After shaking for about 1 min, 40 μl of cell lysate are transferred to a white 96-well plate. For M2-8 in white micro plate, no transfer is needed. Signal intensities (integrated 100 ms) were read on Tecan Infinite M200 or M1000.
The split Gaussia luciferase complementation assay measures the interaction between Sup4h and NGN. NGN is the subunit of Supt5h that binds to Supt4h.

wild-type HTT = assay: Wild-type HTT assay in lymphoblastoid cells (LBC), Western blot; format: cell-based, human
Method: as §1, §2, §3, §4

[4] = tested on: Lymphoblastoid cells (GM14044); assay: LBC cell viability (Cell Titer-Glo); format: cell-based, human; details: at the concentration of IC20, 3-day compound treatment
Method: Cell viability was determined by Cell Titer-Glo reagent (Promega, PRG9243). After 3-day compound treatment, 15 μl of cell suspension was taken out from plate and incubated with 10 μl of CTG reagent. The values of reaction mixture were detected by Tecan.

[5] = 3 days compound treatment, read-out: LBC IC20 (nM) wtHTT

SMILES | IC20 (mutant HTT [1]) | M2-8 Cell viability (M2-8 cells) | IC20 (mutant HTT [2]) | IC50 [3] | IC20 (wild-type HTT; [5]) | LBC viability at IC20 [4] | IC20 (wild-type HTT; read-out: LBC IC20 (nM) wtHTT, 3 days compound treatment)
OB(O)c1cccc(CN[C@@H]2CCCc3c2[nH]c2ccc(Br)cc32)c1 (single isomer, unassigned) [Compound 39] | > 1000 nM | + (cell viability is greater than 50% at the concentration of 1000 nM) | > 100 nM | ≤ 100 nM | > 1000 nM | – | –
C=C(C)c1ccc(CN[C@@H]2CCCc3c2[nH]c2ccc(Br)cc32)s1 [Compound 68] | 101 to 300 nM | + (cell viability is greater than 50% at the concentration of 1000 nM) | > 100 nM | ≤ 100 nM | > 1000 nM | * (cell viability is greater than 60% at the concentration of IC20) | –
COC(=O)c1cccc(CN[C@@H]2CCCc3c2[nH]c2ccc(Br)cc32)c1 (single isomer, unassigned) [Compound 59] | 101 to 300 nM | + (cell viability is greater than 50% at the concentration of 1000 nM) | > 100 nM | 101 to 300 nM | > 1000 nM | * (cell viability is greater than 60% at the concentration of IC20) | –
COCc1ccc(CN[C@@H]2CCCc3c2[nH]c2ccc(Br)cc32)cc1 [Compound 27, (R)-6-bromo-N-(4-(methoxymethyl)benzyl)-2,3,4,9-tetrahydro-1H-carbazol-1-amine] | 101 to 300 nM | + (cell viability is greater than 50% at the concentration of 1000 nM) | – | ≤ 100 nM | > 1000 nM | * (cell viability is greater than 60% at the concentration of IC20) | –
COc1ccc(CN[C@@H]2CCCc3c2[nH]c2ccc(Br)cc32)cc1 [Compound 25, (R)-6-bromo-N-(4-methoxybenzyl)-2,3,4,9-tetrahydro-1H-carbazol-1-amine] | 301 to 1000 nM | + (cell viability is greater than 50% at the concentration of 1000 nM) | – | 101 to 300 nM | > 1000 nM | * (cell viability is greater than 60% at the concentration of IC20) | –
COCC(N[C@@H]1CCCc2c1[nH]c1ccc(Br)cc21)c1ccc(C(C)(C)O)cc1 (single isomer, unassigned) [Compound 53] | > 1000 nM | + (cell viability is greater than 50% at the concentration of 1000 nM) | > 100 nM | 101 to 300 nM | > 500 nM | – | –
CC(C)(O)c1cccc(CN[C@@H]2CCCc3c2[nH]c2ccc(Br)cc32)c1 (single isomer, unassigned) [Compound 58] | 101 to 300 nM | + (cell viability is greater than 50% at the concentration of 1000 nM) | > 100 nM | 101 to 300 nM | > 1000 nM | * (cell viability is greater than 60% at the concentration of IC20) | –
C#Cc1ccc2[nH]c3c(c2c1)CCC[C@H]3NCc1ccccc1 [Compound 5, (R)—N-benzyl-6-ethynyl-2,3,4,9-tetrahydro-1H-carbazol-1-amine] | < 100 nM | + (cell viability is greater than 50% at the concentration of 1000 nM) | > 100 nM | ≤ 100 nM | > 1000 nM | * (cell viability is greater than 60% at the concentration of IC20) | –
N#Cc1ccc(CN[C@@H]2CCCc3c2[nH]c2ccc(Br)cc32)cc1 [Compound 26, (R)-4-(((6-bromo-2,3,4,9-tetrahydro-1H-carbazol-1-yl)amino)methyl)benzonitrile] | 101 to 300 nM | + (cell viability is greater than 50% at the concentration of 1000 nM) | – | 101 to 300 nM | – | * (cell viability is greater than 60% at the concentration of IC20) | > 1000 nM
Brc1ccc2[nH]c3c(c2c1)CCC[C@H]3NCc1ccccn1 [Compound 33, (R)-6-bromo-N-(pyridin-2-ylmethyl)-2,3,4,9-tetrahydro-1H-carbazol-1-amine] | 301 to 1000 nM | + (cell viability is greater than 50% at the concentration of 1000 nM) | > 100 nM | 101 to 300 nM | > 1000 nM | * (cell viability is greater than 60% at the concentration of IC20) | –
Nc1ccc(CN[C@@H]2CCCc3c2[nH]c2ccc(Br)cc32)cc1 [Compound 21, (R)—N-(4-aminobenzyl)-6-bromo-2,3,4,9-tetrahydro-1H-carbazol-1-amine] | 101 to 300 nM | + (cell viability is greater than 50% at the concentration of 1000 nM) | – | ≤ 100 nM | > 1000 nM | * (cell viability is greater than 60% at the concentration of IC20) | –
Brc1ccc2[nH]c3c(c2c1)CCC[C@H]3NCc1cccc(I)c1 [Compound 41, (R)-6-bromo-N-(3-iodobenzyl)-2,3,4,9-tetrahydro-1H-carbazol-1-amine] | 101 to 300 nM | + (cell viability is greater than 50% at the concentration of 1000 nM) | > 100 nM | ≤ 100 nM | > 1000 nM | * (cell viability is greater than 60% at the concentration of IC20) | –
